The supplement of paper PMC10307832

What was measured:
Test in all cases: relative viability (nuclei count vs DMSO), 5 days (fraction); higher = more cells survive
NCI-H650 = test system: NCI-H650
Outline: (§1)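 Cells from lung cancer lines were seeded into 1536-well plates and, one day later, dosed by pin tool. Treatments were either a single drug or a fixed dose of an anchor drug with five library-drug doses (not always all listed) in √10 steps. After 5 days, nuclei were stained in a one-step fixation (final 0.05% Triton X-100, 1% formaldehyde, 1 ug/ml Hoechst) and counted on 4× images, and relative viability is the treated-to-vehicle nuclei ratio, as the median of duplicate plates.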

LCLC-97TM1 = test system: LCLC-97TM1
Outline: as §1

RERF-LC-KJ = test system: RERF-LC-KJ
Outline: as §1

NCI-H2087 = test system: NCI-H2087
Outline: as §1

EPLC-272H = test system: EPLC-272H
Outline: as §1

NCI-H23 = test system: NCI-H23
Outline: as §1

NCI-H322M = test system: NCI-H322M
Outline: as §1

LC-2-ad = test system: LC-2-ad
Outline: as §1

H3255 = test system: H3255
Outline: as §1

201T = test system: 201T
Outline: as §1

HCC-78 = test system: HCC-78
Outline: as §1

NCI-H647 = test system: NCI-H647
Outline: as §1

COR-L 105 = test system: COR-L 105
Outline: as §1

NCI-H2405 = test system: NCI-H2405
Outline: as §1

NCI-H2347 = test system: NCI-H2347
Outline: as §1

NCI-H1666 = test system: NCI-H1666
Outline: as §1

NCI-H2126 = test system: NCI-H2126
Outline: as §1

ChaGo-K-1 = test system: ChaGo-K-1
Outline: as §1

NCI-H1915 = test system: NCI-H1915
Outline: as §1

HCC-827 = test system: HCC-827
Outline: as §1

NCI-H520 = test system: NCI-H520
Outline: as §1

PC-14 = test system: PC-14
Outline: as §1

NCI-H661 = test system: NCI-H661
Outline: as §1

Clc1ccc(Nc2nnc(Cc3ccncc3)c3ccccc23)cc1 [Vatalanib] + C[C@@H](Oc1cc(-c2cnn(C3CCNCC3)c2)cnc1N)c1c(Cl)ccc(F)c1Cl [Crizotinib] (partner 1 µM) was tested, and the relative viability (NCI-H650; first compound 0.04 µM) was 0.726, the relative viability (NCI-H650; first compound 0.1265 µM) was 0.627 and the relative viability (NCI-H650; first compound 1.265 µM) was 0.641. For the same molecule, the relative viability (NCI-H650; first compound 4 µM) was 0.606, the relative viability (LCLC-97TM1; first compound 0.04 µM) was 0.308 and the relative viability (LCLC-97TM1; first compound 0.1265 µM) was 0.312. It also gave a relative viability (LCLC-97TM1; first compound 0.4 µM) of 0.447, a relative viability (LCLC-97TM1; first compound 1.265 µM) of 0.386 and a relative viability (LCLC-97TM1; first compound 4 µM) of 0.365. The relative viability (RERF-LC-KJ; first compound 0.04 µM) was 0.881, the relative viability (RERF-LC-KJ; first compound 0.1265 µM) was 0.766 and the relative viability (RERF-LC-KJ; first compound 0.4 µM) was 0.88. For the same molecule, the relative viability (RERF-LC-KJ; first compound 1.265 µM) was 0.792, the relative viability (RERF-LC-KJ; first compound 4 µM) was 0.799 and the relative viability (NCI-H2087; first compound 0.04 µM) was 0.89. It also gave a relative viability (NCI-H2087; first compound 0.1265 µM) of 1.07, a relative viability (NCI-H2087; first compound 0.4 µM) of 0.828 and a relative viability (NCI-H2087; first compound 1.265 µM) of 0.826. It also gave a relative viability (NCI-H2087; first compound 4 µM) of 0.89, a relative viability (EPLC-272H; first compound 0.04 µM) of 0.836 and a relative viability (EPLC-272H; first compound 0.1265 µM) of 0.779. The relative viability (EPLC-272H; first compound 0.4 µM) was 0.965, the relative viability (EPLC-272H; first compound 1.265 µM) was 0.919 and the relative viability (EPLC-272H; first compound 4 µM) was 0.955. It also gave a relative viability (NCI-H23; first compound 0.04 µM) of 0.505, a relative viability (NCI-H23; first compound 0.1265 µM) of 0.49 and a relative viability (NCI-H23; first compound 0.4 µM) of 0.491. It also gave a relative viability (NCI-H23; first compound 1.265 µM) of 0.622, a relative viability (NCI-H23; first compound 4 µM) of 0.564 and a relative viability (NCI-H322M; first compound 0.04 µM) of 1.02. The relative viability (NCI-H322M; first compound 0.1265 µM) was 0.891, the relative viability (NCI-H322M; first compound 0.4 µM) was 0.958 and the relative viability (NCI-H322M; first compound 1.265 µM) was 0.858. The relative viability (NCI-H322M; first compound 4 µM) was 0.939, the relative viability (LC-2-ad; first compound 0.04 µM) was 0.515 and the relative viability (LC-2-ad; first compound 0.1265 µM) was 0.436. For the same molecule, the relative viability (LC-2-ad; first compound 1.265 µM) was 0.456, the relative viability (LC-2-ad; first compound 4 µM) was 0.458 and the relative viability (H3255; first compound 0.04 µM) was 0.986. For the same molecule, the relative viability (H3255; first compound 0.1265 µM) was 0.878, the relative viability (H3255; first compound 0.4 µM) was 0.718 and the relative viability (H3255; first compound 1.265 µM) was 0.802. It also gave a relative viability (H3255; first compound 4 µM) of 0.85, a relative viability (201T; first compound 0.04 µM) of 1 and a relative viability (201T; first compound 0.1265 µM) of 1.07. The relative viability (201T; first compound 0.4 µM) was 1.03, the relative viability (201T; first compound 1.265 µM) was 0.991 and the relative viability (201T; first compound 4 µM) was 1.07. The relative viability (HCC-78; first compound 0.04 µM) was 0.318, the relative viability (HCC-78; first compound 0.1265 µM) was 0.324 and the relative viability (HCC-78; first compound 0.4 µM) was 0.35. The relative viability (HCC-78; first compound 4 µM) was 0.306, the relative viability (NCI-H647; first compound 0.04 µM) was 0.92 and the relative viability (NCI-H647; first compound 0.1265 µM) was 1.07. It also gave a relative viability (NCI-H647; first compound 0.4 µM) of 1.31, a relative viability (NCI-H647; first compound 1.265 µM) of 0.977 and a relative viability (NCI-H647; first compound 4 µM) of 0.918. For the same molecule, the relative viability (COR-L 105; first compound 0.04 µM) was 0.818, the relative viability (COR-L 105; first compound 0.1265 µM) was 0.677 and the relative viability (COR-L 105; first compound 0.4 µM) was 0.938. The relative viability (COR-L 105; first compound 1.265 µM) was 0.73, the relative viability (COR-L 105; first compound 4 µM) was 0.827 and the relative viability (NCI-H2405; first compound 0.04 µM) was 0.896. It also gave a relative viability (NCI-H2405; first compound 0.1265 µM) of 0.79, a relative viability (NCI-H2405; first compound 0.4 µM) of 0.932 and a relative viability (NCI-H2405; first compound 1.265 µM) of 0.816. It also gave a relative viability (NCI-H2405; first compound 4 µM) of 0.82, a relative viability (NCI-H2347; first compound 0.04 µM) of 0.642 and a relative viability (NCI-H2347; first compound 0.1265 µM) of 0.69. It also gave a relative viability (NCI-H2347; first compound 0.4 µM) of 0.654, a relative viability (NCI-H2347; first compound 1.265 µM) of 0.817 and a relative viability (NCI-H2347; first compound 4 µM) of 0.732. For the same molecule, the relative viability (NCI-H1666; first compound 0.04 µM) was 0.968, the relative viability (NCI-H1666; first compound 0.1265 µM) was 0.985 and the relative viability (NCI-H1666; first compound 0.4 µM) was 1.06. It also gave a relative viability (NCI-H1666; first compound 1.265 µM) of 0.889, a relative viability (NCI-H1666; first compound 4 µM) of 0.742 and a relative viability (NCI-H2126; first compound 0.04 µM) of 0.977. It also gave a relative viability (NCI-H2126; first compound 0.1265 µM) of 1.03, a relative viability (NCI-H2126; first compound 0.4 µM) of 1.05 and a relative viability (NCI-H2126; first compound 1.265 µM) of 1.07. For the same molecule, the relative viability (NCI-H2126; first compound 4 µM) was 0.992, the relative viability (ChaGo-K-1; first compound 0.04 µM) was 1.18 and the relative viability (ChaGo-K-1; first compound 0.1265 µM) was 1.14. It also gave a relative viability (ChaGo-K-1; first compound 1.265 µM) of 1.1, a relative viability (ChaGo-K-1; first compound 4 µM) of 1.09 and a relative viability (NCI-H1915; first compound 0.04 µM) of 0.939. It also gave a relative viability (NCI-H1915; first compound 0.1265 µM) of 0.869, a relative viability (NCI-H1915; first compound 0.4 µM) of 0.885 and a relative viability (NCI-H1915; first compound 1.265 µM) of 0.92. It also gave a relative viability (NCI-H1915; first compound 4 µM) of 0.918, a relative viability (HCC-827; first compound 0.04 µM) of 0.845 and a relative viability (HCC-827; first compound 0.1265 µM) of 0.936. It also gave a relative viability (HCC-827; first compound 0.4 µM) of 0.943, a relative viability (HCC-827; first compound 1.265 µM) of 0.894 and a relative viability (HCC-827; first compound 4 µM) of 0.853. For the same molecule, the relative viability (NCI-H520; first compound 0.04 µM) was 0.667, the relative viability (NCI-H520; first compound 0.1265 µM) was 0.849 and the relative viability (NCI-H520; first compound 0.4 µM) was 0.824. For the same molecule, the relative viability (NCI-H520; first compound 1.265 µM) was 0.614, the relative viability (NCI-H520; first compound 4 µM) was 0.696 and the relative viability (PC-14; first compound 0.04 µM) was 0.976. The relative viability (PC-14; first compound 0.1265 µM) was 0.916, the relative viability (PC-14; first compound 0.4 µM) was 0.956 and the relative viability (PC-14; first compound 1.265 µM) was 0.825. The relative viability (PC-14; first compound 4 µM) was 0.865, the relative viability (NCI-H661; first compound 0.04 µM) was 1.03 and the relative viability (NCI-H661; first compound 0.4 µM) was 0.986. The relative viability (NCI-H661; first compound 1.265 µM) was 0.885 and the relative viability (NCI-H661; first compound 4 µM) was 0.872.
